# Data as given in US7297704B2, “Cycloalkyfused indole, benzothiophene, benzofuran and idene derivatives” (Wyeth, priority 2005, dated 2007).
# Where a name gives a salt, the structure may show the parent alone.
row,SMILES,melting point
1,"Cc1ccc2c3c(ccc2n1)OC[C@H](CN(C[C@@H]1CCc2[nH]c4ccc(F)cc4c2C1)C1CCCC1)O3.Cl.O (hydrate or solvate) [Example 59, N-{[(3R)-6-Fluoro-2,3,4,9-tetrahydro-1H-carbazol-3-yl]methyl}-N-{[(2S)-8-methyl-2,3-dihydro[1,4]dioxino[2,3-f]quinolin-2-yl]methyl}cyclopentanamine monohydrochloride monohydrate]",225 to 243 °C
2,"CCCN(CC1CCc2[nH]c3ccc(F)cc3c2C1)C[C@H]1COc2ccc3nc(C)ccc3c2O1.Cl.Cl.O.O (stereo partly drawn) (hydrate or solvate) [Example 51, N-[(6-Fluoro-2,3,4,9-tetrahydro-1H-carbazol-3-yl)methyl]-N-{[(2S)-8-methyl-2,3-dihydro[1,4]dioxino[2,3-f]quinolin-2-yl]methyl}propan-1-amine dihydrochloride dihydrate]",187 to 201 °C
3,"Cc1ccc2c3c(ccc2n1)OC[C@H](CNC1CCc2c([nH]c4ccc(F)cc24)C1)O3 (mixture of isomers) (as salt: hydrochloride) [Example 46, 6-Fluoro-N-{[(2S)-8-methyl-2,3-dihydro[1,4]dioxino[2,3-f]quinolin-2-yl]methyl}-2,3,4,9-tetrahydro-1H-carbazol-2-amine]",226 to 228 °C (dec.)
4,"CCCN(C[C@@H]1CCc2[nH]c3ccc(F)cc3c2C1)C[C@H]1COc2ccc3nc(C)ccc3c2O1.Cl.Cl.O.O (hydrate or solvate) [Example 54, N-{[(3R)-6-Fluoro-2,3,4,9-tetrahydro-1H-carbazol-3-yl]methyl}-N-{[(2S)-8-methyl-2,3-dihydro[1,4]dioxino[2,3-f]quinolin-2-yl]methyl}propan-1-amine dihydrochloride dihydrate]",225 to 240 °C
5,"CCN(CC1CCc2[nH]c3ccc(F)cc3c2C1)C[C@H]1COc2ccc3nc(C)ccc3c2O1.Cl.Cl.O.O (stereo partly drawn) (hydrate or solvate) [Example 50, N-[(6-Fluoro-2,3,4,9-tetrahydro-1H-carbazol-3-yl)methyl]-N-{[(2S)-8-methyl-2,3-dihydro[1,4]dioxino[2,3-f]quinolin-2-yl]methyl}ethanamine dihydrochloride dihydrate]",234 to 249 °C
6,"Cc1ccc2c3c(ccc2n1)OC[C@H](CN(CC1CCc2c(c4cc(F)ccc4n2C)C1)C1CCCC1)O3.Cl.O (stereo partly drawn) (hydrate or solvate) [Example 66, N-[(6-Fluoro-9-methyl-2,3,4,9-tetrahydro-1H-carbazol-3-yl)methyl]-N-{[(2S)-8-methyl-2,3-dihydro[1,4]dioxino[2,3-f]quinolin-2-yl]methyl}cyclopentanamine monohydrochloride monohydrate]",206 to 222 °C
7,"Cc1ccc2c3c(ccc2n1)OC[C@H](CNC[C@H]1CCc2[nH]c4ccccc4c2C1)O3 (single isomer, unassigned) (as salt: hydrochloride) [Example 100a]",202 to 205 °C (dec.)
8,"Cc1ccc2c3c(ccc2n1)OCC(CNCC1CCc2[nH]c4ccc(Cl)cc4c2C1)O3 (stereo not drawn) [Example 85, (6-Chloro-2,3,4,9-tetrahydro-1H-carbazol-3-ylmethyl)-(8-methyl-2,3-dihydro-[1,4]dioxino[2,3-f]quinolin-2-ylmethyl)-amine]",235 to 237 °C
9,"Cc1ccc2c3c(ccc2n1)OC[C@H](CN(C[C@H]1CCc2[nH]c4ccc(F)cc4c2C1)C(C)C)O3.Cl.O (hydrate or solvate) [Example 61, N-{[(3S)-6-Fluoro-2,3,4,9-tetrahydro-1H-carbazol-3-yl]methyl}-N-{[(2S)-8-methyl-2,3-dihydro[1,4]dioxino[2,3-f]quinolin-2-yl]methyl}propan-2-amine monohydrochloride monohydrate]",228 to 240 °C
